Measured values taken from patent US7981997B2, “Growth factor which acts through ErbB-4 RTK” (Yeda Research And Development Co., priority 2000, dated 2011).

What was measured:
[1] = tested on: D1 cells (32D expressing ErbB-1); assay: 32D cell proliferation, 24-hour dose-response MTT assay; format: cell-based; conditions: 24-hour dose-response, without IL-3
Description: The indicated derivative lines of 32D cells were tested for cell proliferation using the [3-(4,5-dimethylthiazol-2-yl)-2,5-diphenyl]tetrazolium bromide (MTT) assay. […] The MT assay was performed 24 hours later. Results are presented as percent induction over the control untreated cells, and are the mean±S.D. of 4 determinations. Each experiment was repeated at least twice with similar findings.
(§1) The establishment of a series of interleukin 3 (IL-3)-dependent 32D myeloid cells expressing all combinations of ErbB proteins has been described (Alimandi et al., 1997; Pinkas-Kramarski et al., 1996; Shelly et al., 1998). Cells were maintained in RPMI medium with 10% fetal bovine serum (FBS) and dilute IL3-containing conditioned medium. Prior to proliferation assays, cells were washed three times in RPMI/FBS and plated (5×10^5 cells/ml; 0.1 ml/well) into 96-well flat-bottomed plates with the indicated liconcentrations or with IL-3 (1:1000 dilution of conditioned medium). Cell survival was determined 24 hours later, or after the indicated time intervals, by MTT assay, as previously described (Mosman, 1983). MTT (0.05 mg/ml) was incubated with the analyzed cells for 2 hours at 37 C. Living cells can transform the tetrazolium ring into dark blue formazan crystals, that can be quantified by reading the optical density at 540-630 nm after lysis of the cells with acidic isopropanol. […]

[2] = tested on: D12 cells (32D co-expressing ErbB-1 and ErbB-2); assay: Long-term cell survival assay in the absence of IL-3 (MTT); format: cell-based; conditions: ligand 100 ng/ml, FIG. 3B
Description: FIG. 3b show survival effect of NRG-4 on ErbB-expressing derivatives of 32D cells. The indicated derivatives of 32D cells were incubated for various time intervals in the absence of IL-3. […] For control, cells were incubated with medium conditioned by IL-3-producing cells (open triangles), or with no factor (open circles). The extent of cell proliferation was determined daily by using the calorimetric MTT assay. The data presented are the mean±S.D. of 4 determinations. Note that co-expression of ErbB-1 and ErbB-2 (D12 cells) enabled cell survival in the absence of IL-3. The experiment was repeated twice with similar results.
as §1, with “Prior to proliferation assays, cells were washed three times in RPMI/FBS and plated (5×10^5 cells/ml; 0.1 ml/well) into 96-well flat-bottomed plates with the indicated liconcentrations or with IL-3 (1:1000 dilution of conditioned medium).” left out

## EGF: EGF (human, recombinant) purchased from Boehringer Mannheim (NSDSECPLSHDGYCLHDGVCMYIEALDKYACNCVVGYIGERCQYRDLKWWELR) [reference compound]
[1]
  mitogenic response of D1 cells: retained
[2]
  response of D12 cells (high basal proliferation activity): still responded
